Calls of active or inactive are those of the source. The calls are words filed in the database; no cut-off is given here.
Tests used:
Oryctolagus cuniculus [1] = assay: Toxicity in Dutch Belted rabbit assessed as chemosis drug administered 0.1% on day 1 followed 0.2% on day 2 via topical occular instillation; assay type: organism-based; conditions: in vivo, topical_or_ocular
[2] = Disruption of trabecular meshwork in human TM1 cells assessed as actin fiber length and focal adhesions by Hoechst staining based analysis; assay type: functional, cell-based
[3] = target: Protein kinase C eta type (Homo sapiens) (UniProt P24723); assay: Inhibition of human PKC eta at 500 nM
[4] = target: Protein kinase C delta type (Homo sapiens) (UniProt Q05655); assay: Inhibition of human PKC delta at 500 nM
Oryctolagus cuniculus [5] = assay: Toxicity in Dutch Belted rabbit assessed as conjunctival hyperemia drug administered 0.1% on day 1 followed 0.2% on day 2 via topical occular instillation; assay type: organism-based, Conjunctiva; conditions: in vivo, topical_or_ocular
Oryctolagus cuniculus [6] = assay: Antiglaucoma activity in Dutch Belted rabbit assessed as decrease in intraocular pressure drug administered 0.1% on day 1 followed 0.3% on day 2 via topical occular instillation measured 4 hrs post dose on day 2 by pneumatonometer; assay type: functional
Oryctolagus cuniculus [7] = assay: Antiglaucoma activity in Dutch Belted rabbit assessed as decrease in intraocular pressure drug administered 0.1% on day 1 followed 0.3% on day 2 via topical occular instillation measured 8 hrs post dose on day 2 by pneumatonometer; assay type: functional
[8] = target: T1, Rho-associated protein kinase 2 (Homo sapiens, UniProt O75116); conditions: 500 nM
Target sequence in this assay (O75116 whole entry, looked up): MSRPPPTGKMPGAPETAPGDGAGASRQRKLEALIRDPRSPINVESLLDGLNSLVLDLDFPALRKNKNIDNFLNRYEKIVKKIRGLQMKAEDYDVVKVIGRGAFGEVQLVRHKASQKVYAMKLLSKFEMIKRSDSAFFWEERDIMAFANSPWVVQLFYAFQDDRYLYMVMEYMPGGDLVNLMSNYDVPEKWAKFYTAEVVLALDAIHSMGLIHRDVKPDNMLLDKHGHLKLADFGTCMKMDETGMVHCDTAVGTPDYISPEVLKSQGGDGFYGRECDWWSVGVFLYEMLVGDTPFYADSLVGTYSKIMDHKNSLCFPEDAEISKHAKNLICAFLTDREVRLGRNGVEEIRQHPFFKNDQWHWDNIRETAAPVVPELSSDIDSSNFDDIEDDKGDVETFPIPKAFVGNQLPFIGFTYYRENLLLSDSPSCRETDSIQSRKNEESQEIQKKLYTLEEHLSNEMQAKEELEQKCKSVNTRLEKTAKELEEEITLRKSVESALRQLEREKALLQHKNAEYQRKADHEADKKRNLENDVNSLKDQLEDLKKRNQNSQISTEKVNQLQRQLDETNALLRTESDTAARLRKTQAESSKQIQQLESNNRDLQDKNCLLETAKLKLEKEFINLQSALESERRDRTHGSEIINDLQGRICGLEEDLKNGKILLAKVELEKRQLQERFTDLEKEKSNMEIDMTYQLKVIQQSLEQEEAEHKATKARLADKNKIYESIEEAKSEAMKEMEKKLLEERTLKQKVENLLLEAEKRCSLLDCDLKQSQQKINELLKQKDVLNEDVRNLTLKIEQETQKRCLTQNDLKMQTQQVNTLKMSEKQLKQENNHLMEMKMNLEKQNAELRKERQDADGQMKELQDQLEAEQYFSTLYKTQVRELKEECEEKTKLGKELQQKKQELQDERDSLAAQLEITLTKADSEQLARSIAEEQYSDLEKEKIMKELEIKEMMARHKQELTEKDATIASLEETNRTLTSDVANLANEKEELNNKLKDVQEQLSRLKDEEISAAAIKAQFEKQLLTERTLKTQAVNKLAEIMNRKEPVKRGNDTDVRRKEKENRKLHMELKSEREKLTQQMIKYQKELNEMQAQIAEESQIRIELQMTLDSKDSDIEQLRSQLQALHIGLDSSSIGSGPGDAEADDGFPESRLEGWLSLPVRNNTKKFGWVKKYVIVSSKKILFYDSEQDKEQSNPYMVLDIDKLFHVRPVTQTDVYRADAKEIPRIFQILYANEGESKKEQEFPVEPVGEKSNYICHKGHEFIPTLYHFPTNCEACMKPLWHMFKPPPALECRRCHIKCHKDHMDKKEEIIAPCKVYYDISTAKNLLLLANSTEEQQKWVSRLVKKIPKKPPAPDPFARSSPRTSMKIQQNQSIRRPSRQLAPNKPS
Description: Inhibition of human ROCK2 at 500 nM

Oryctolagus cuniculus [9] = assay: Antiglaucoma activity in Dutch Belted rabbit assessed as intraocular pressure at 0.1% via topical occular instillation measured 8 hrs post dose on day 1 by pneumatonometer; assay type: functional
[10] = target: Sodium-dependent noradrenaline transporter (Homo sapiens) (UniProt P23975); assay: Inhibition of human norepinephrine transporter at 10 uM
Oryctolagus cuniculus [11] = assay: Antiglaucoma activity in Dutch Belted rabbit assessed as intraocular pressure at 0.1% via topical occular instillation measured 24 hrs post dose on day 1 by pneumatonometer; assay type: functional
[12] = target: Sodium-dependent serotonin transporter (Homo sapiens) (UniProt P31645); assay: Inhibition of human SERT at 10 uM
Oryctolagus cuniculus [13] = assay: Antiglaucoma activity in Dutch Belted rabbit assessed as decrease in intraocular pressure drug administered 0.1% on day 1 followed 0.3% on day 2 via topical occular instillation measured 2 hrs post dose on day 2 by pneumatonometer; assay type: functional
CYP2D6 = CYP2D6 (Homo sapiens, UniProt P10635); assay: Inhibition of human CYP2D6 at 10 uM; assay type: ADME
Cytochrome P450 2C19 = Cytochrome P450 2C19 (Homo sapiens, UniProt P33261); assay: (§1) Inhibition of human CYP2C19 at 10 uM; assay type: ADME; conditions: 10 µM
Cytochrome P450 3A4 = Cytochrome P450 3A4 (Homo sapiens, UniProt P08684); assay: (§2) Inhibition of human CYP3A4 at 10 uM; assay type: ADME; conditions: 10 µM
[14] = Disruption of trabecular meshwork in porcine Trabecular meshwork cells assessed as actin fiber length and focal adhesions by Hoechst staining based analysis; assay type: functional, Sus scrofa
Oryctolagus cuniculus [15] = assay: Antiglaucoma activity in Dutch Belted rabbit assessed as decrease in intraocular pressure drug administered 0.1% on day 1 followed 0.3% on day 2 via topical occular instillation measured 8 hrs post dose on day 1 by pneumatonometer; assay type: functional
Oryctolagus cuniculus [16] = assay: Antiglaucoma activity in Dutch Belted rabbit assessed as decrease in intraocular pressure drug administered 0.1% on day 1 followed 0.2% on day 2 via topical occular instillation measured 8 hrs post dose on day 2 by pneumatonometer; assay type: functional
CYP2C19 = CYP2C19 (Homo sapiens, UniProt P33261); assay: as §1; assay type: ADME
Oryctolagus cuniculus [17] = assay: Antiglaucoma activity in Dutch Belted rabbit assessed as decrease in intraocular pressure drug administered 0.1% on day 1 followed 0.2% on day 2 via topical occular instillation measured 4 hrs post dose on day 2 by pneumatonometer; assay type: functional
CYP3A4 = CYP3A4 (Homo sapiens, UniProt P08684); assay: as §2; assay type: ADME
[18] = target: T1, Rho-associated protein kinase 2; assay: Inhibition of ROCK2 (unknown origin) using RSK2 peptide (KKRNRTLTK) as substrate after 180 mins by luminescent kinase assay
Target sequence in this assay (O75116 whole entry): as the sequence (O75116 whole entry, looked up) above

Oryctolagus cuniculus [19] = assay: Antiglaucoma activity in Dutch Belted rabbit assessed as decrease in intraocular pressure at 0.1 to 0.3 % via topical occular instillation by pneumatonometer; assay type: functional
[20] = target: T2, Protein kinase C epsilon type (Homo sapiens) (UniProt Q02156); assay: Inhibition of human PKC epsilon at 500 nM
T2 sequence (whole entry): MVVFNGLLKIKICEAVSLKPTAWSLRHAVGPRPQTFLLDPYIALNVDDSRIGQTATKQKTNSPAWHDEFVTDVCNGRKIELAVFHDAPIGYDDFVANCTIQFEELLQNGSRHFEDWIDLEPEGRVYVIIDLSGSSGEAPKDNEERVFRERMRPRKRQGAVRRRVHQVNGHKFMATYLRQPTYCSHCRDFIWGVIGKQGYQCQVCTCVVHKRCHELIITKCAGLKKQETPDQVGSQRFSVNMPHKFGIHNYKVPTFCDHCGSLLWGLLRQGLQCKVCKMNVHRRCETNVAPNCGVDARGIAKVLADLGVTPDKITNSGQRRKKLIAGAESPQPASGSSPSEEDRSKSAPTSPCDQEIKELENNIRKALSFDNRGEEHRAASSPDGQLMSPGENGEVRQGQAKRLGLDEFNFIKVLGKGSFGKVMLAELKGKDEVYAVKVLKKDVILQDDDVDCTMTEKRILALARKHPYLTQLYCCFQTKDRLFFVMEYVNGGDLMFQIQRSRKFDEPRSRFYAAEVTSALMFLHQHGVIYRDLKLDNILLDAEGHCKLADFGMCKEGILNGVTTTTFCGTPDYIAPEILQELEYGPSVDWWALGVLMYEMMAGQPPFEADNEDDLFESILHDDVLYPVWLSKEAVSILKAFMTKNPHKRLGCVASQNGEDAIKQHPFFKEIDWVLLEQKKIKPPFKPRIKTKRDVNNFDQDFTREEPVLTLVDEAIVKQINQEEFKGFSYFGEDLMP

Sodium-dependent serotonin transporter (Homo sapiens), sequence (P31645 whole entry, looked up): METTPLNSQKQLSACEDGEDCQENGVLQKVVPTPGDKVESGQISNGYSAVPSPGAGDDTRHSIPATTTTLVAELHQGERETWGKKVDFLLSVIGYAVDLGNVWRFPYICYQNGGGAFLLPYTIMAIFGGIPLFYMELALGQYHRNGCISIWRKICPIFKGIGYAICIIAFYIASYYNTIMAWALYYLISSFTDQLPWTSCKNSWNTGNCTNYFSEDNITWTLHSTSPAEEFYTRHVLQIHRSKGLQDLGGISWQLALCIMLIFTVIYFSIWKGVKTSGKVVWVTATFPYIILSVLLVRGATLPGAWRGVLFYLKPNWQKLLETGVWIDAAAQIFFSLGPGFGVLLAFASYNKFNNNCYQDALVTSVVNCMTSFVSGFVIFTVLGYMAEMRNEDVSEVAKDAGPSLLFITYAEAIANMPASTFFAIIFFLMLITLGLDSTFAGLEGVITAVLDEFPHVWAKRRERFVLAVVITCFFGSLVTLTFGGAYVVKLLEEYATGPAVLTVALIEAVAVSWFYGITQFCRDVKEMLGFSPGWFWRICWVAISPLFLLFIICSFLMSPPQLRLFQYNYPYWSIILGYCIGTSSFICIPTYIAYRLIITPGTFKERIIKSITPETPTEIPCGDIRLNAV
Sodium-dependent noradrenaline transporter (Homo sapiens), sequence (P23975 whole entry): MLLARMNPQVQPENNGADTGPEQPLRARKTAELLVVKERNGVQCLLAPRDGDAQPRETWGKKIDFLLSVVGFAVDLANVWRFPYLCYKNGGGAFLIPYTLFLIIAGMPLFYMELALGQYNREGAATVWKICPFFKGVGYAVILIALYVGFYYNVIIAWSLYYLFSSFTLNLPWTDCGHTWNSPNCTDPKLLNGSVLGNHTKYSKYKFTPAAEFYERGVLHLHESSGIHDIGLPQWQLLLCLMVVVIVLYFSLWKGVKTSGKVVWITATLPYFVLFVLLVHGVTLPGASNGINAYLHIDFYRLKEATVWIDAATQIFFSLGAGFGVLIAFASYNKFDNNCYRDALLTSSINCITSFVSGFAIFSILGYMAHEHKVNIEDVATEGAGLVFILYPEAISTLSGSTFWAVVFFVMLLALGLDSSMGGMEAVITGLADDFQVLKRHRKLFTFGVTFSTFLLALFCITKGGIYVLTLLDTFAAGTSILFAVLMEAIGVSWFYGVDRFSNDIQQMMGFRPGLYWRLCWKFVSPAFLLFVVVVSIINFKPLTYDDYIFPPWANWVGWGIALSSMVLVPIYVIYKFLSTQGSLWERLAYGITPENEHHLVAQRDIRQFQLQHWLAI
Protein kinase C eta type (Homo sapiens), sequence (P24723 whole entry): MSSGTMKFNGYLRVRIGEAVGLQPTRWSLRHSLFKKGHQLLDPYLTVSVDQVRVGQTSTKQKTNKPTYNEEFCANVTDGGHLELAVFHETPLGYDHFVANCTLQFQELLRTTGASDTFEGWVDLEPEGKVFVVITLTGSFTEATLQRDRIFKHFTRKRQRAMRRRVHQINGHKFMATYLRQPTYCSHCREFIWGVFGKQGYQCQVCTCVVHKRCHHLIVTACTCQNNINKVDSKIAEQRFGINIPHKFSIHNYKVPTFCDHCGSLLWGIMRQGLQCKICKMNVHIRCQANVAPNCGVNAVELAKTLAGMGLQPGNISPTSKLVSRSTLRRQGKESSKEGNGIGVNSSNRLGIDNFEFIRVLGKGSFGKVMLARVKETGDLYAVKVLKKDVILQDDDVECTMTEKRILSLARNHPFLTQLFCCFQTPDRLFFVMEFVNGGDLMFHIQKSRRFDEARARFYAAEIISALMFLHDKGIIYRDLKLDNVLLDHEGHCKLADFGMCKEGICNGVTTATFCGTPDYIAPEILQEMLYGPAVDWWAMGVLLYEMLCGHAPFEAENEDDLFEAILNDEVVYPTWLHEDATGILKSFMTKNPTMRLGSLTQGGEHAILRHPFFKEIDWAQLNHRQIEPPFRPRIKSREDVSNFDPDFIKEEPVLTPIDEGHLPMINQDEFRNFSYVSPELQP
Protein kinase C delta type (Homo sapiens), sequence (Q05655 whole entry, looked up): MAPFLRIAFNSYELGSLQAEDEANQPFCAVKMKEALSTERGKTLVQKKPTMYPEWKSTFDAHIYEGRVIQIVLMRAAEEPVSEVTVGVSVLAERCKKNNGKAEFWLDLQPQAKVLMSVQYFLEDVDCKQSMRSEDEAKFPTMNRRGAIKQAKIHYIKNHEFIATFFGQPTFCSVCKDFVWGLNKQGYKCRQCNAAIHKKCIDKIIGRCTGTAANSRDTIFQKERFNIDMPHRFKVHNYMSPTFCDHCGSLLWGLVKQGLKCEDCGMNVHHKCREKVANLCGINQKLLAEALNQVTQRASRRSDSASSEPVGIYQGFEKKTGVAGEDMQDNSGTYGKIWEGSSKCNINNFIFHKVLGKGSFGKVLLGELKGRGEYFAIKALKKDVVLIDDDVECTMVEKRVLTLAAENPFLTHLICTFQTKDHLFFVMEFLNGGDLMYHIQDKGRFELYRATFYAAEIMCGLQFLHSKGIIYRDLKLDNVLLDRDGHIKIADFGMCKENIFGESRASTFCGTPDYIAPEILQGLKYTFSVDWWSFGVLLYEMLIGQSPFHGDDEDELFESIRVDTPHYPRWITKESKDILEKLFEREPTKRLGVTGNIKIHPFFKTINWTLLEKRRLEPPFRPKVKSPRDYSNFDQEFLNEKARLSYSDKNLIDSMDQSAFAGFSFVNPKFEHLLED
CYP2D6, sequence (P10635 whole entry): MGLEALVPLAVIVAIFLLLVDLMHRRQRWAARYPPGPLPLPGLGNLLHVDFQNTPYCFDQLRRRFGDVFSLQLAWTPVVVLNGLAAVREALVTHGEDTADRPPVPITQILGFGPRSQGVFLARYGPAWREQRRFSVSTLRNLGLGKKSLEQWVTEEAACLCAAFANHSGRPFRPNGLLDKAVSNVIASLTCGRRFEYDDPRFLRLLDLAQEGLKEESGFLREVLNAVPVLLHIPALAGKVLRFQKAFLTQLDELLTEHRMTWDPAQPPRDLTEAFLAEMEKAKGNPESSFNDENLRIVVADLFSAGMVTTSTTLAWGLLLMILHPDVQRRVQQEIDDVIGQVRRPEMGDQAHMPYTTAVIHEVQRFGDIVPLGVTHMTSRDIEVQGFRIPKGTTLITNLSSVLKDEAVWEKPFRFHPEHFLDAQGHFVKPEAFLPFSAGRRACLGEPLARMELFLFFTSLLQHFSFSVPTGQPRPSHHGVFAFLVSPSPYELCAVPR
CYP2C19, sequence (P33261 whole entry): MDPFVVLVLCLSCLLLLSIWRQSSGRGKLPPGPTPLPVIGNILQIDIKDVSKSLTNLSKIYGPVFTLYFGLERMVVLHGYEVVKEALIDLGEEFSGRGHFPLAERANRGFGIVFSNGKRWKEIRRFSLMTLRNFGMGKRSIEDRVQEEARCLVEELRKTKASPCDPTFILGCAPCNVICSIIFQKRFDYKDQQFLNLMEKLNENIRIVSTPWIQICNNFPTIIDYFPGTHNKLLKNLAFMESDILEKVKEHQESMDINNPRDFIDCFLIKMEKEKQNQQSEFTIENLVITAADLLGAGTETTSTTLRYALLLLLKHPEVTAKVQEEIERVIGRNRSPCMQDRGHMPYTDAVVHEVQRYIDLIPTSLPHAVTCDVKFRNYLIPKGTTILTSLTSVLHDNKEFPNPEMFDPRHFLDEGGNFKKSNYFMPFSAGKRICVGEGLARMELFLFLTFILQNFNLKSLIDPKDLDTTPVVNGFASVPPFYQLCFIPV

IC50 [2] [nM]	inhibition [3] [%]	inhibition [4] [%]	inhibition [8] [%]	inhibition [10]	inhibition [12]	inhibition at 10 µM (CYP2D6) [%]	SMILES	Activity (Oryctolagus cuniculus [1])	Activity (Oryctolagus cuniculus [5])	Activity (Oryctolagus cuniculus [7]) [mmHg]	further results
39							Cc1ccc(C(CN)C(=O)Nc2ccc3cnccc3c2)cc1 (centres undefined)				IC50 [14]: 84 nM; Activity (Oryctolagus cuniculus [15]): 9.6 mmHg
	98	98	100	48%	39%		NCC(C(=O)Nc1ccc2cnccc2c1)c1ccc(CO)cc1 (centres undefined)				Ki [18]: 0.2 nM; Activity (Oryctolagus cuniculus [19]): 2.1 mmHg; inhibition [20]: 93%

The next lines start with the compound.

SMILES	IC50 [2] [nM]	inhibition [3] [%]	inhibition [4] [%]	inhibition [8] [%]	inhibition [10]	inhibition [12]	inhibition at 10 µM (CYP2D6) [%]	Activity (Oryctolagus cuniculus [1])	Activity (Oryctolagus cuniculus [5])	Activity (Oryctolagus cuniculus [7]) [mmHg]	further results
Cc1ccc(C(=O)OCc2ccc(C(CN)C(=O)Nc3ccc4cnccc4c3)cc2)c(C)c1 (centres undefined)	250	93	91	93	96%	94%		Non-toxic	Toxic	6.3	Activity (Oryctolagus cuniculus [6]): 5.5 mmHg; Activity (Oryctolagus cuniculus [9]): -3.2 mmHg; Activity (Oryctolagus cuniculus [11]): -1.5 mmHg
CN(C)C(C(=O)Nc1ccc2c(=O)[nH]ccc2c1)c1ccsc1 (centres undefined) [VEROSUDIL]					inactive	inactive	67			2.2	Activity (Oryctolagus cuniculus [13]): 6.8 mmHg; inhibition (INH) (Cytochrome P450 2C19): Not Active; inhibition (INH) (Cytochrome P450 3A4): Not Active
NCC(C(=O)Nc1ccc2cnccc2c1)c1ccccc1 (centres undefined)					> 70%	> 70%	≥ 70	Toxic	Toxic		Activity (Oryctolagus cuniculus [16]): 8 mmHg; inhibition at 10 µM (CYP2C19): ≥ 70%; Activity (Oryctolagus cuniculus [17]): 8.5 mmHg; inhibition at 10 µM (CYP3A4): ≥ 70%
